System: anti-PAH monoclonal antibody
Experiment: PAH immunoassay (competitive, antibody coated tubes): cross-reactivity with the anti-PAH monoclonal antibody
Assay type: binding, Balb/c mice
Conditions: for Percent Cross-Reactivity: phenanthrene 100%; for detection in the immunoassay: at 200 ppm levels
Experimental: Female Balb/c mice received a primary subcutaneous immunization with 50 ug of β-methylnaphthalene derivatized to bovine serum albumin in adjuvant (MPL+TDM Emulsion, RIBI Immunochem Research, Inc., Hamilton, Mont.). Subcutaneous secondary injections (25 ug) were given at day 21, 35, and then monthly. […] Hybridoma cultures producing monoclonal antibodies recognizing free hapten by EIA were cloned by limiting dilution.
Antibody coated tubes were prepared by passively coating polystyrene (12X75 mm, NUNC) tubes with the monoclonal F12-3C8 antibody diluted in PBS and incubating overnight. The NUNC polystyrene tubes were rinsed with hexane prior to use and were all from the same lot.
10 g of a soil sample were placed in an extraction vial containing 20 mL of methanol and 5 steel pellets (6 mm) and the vial and its contents shaken for 1 minute to disperse the soil particles and extract the PAHs. The sample was then filtered to clarify the sample extract using a glass fiber depth filter and a 0.45μ Teflon filter. 45 uL of the clarified filtrate sample was mixed with 955 μl of 10 mM PBS (pH=7.4) and the resulting mixture added to lyophilized enzyme conjugate reagent (0.3 μg) and mixed. At the same time, 2×45 uL of the phenanthrene standard are similarly treated. The sample and the two standards were then poured into three identical antibody coated tubes, respectively, and the resulting solution mixed. The resulting solution was incubated for 10 minutes at ambient temperature and then washed 4X with a wash buffer (detergent-saline solution). 250 uL of tetramethylbenzidene solution (KP Laboratories, Cat. No. 50-76-02) was added along with 250 uL of hydrogen peroxide solution (KPL, Cat. No. 50-65-02) and the resultant solution mixed. After incubating for 2.5 minutes the color development reaction was stopped with 250 uL of stop solution (1M sulfuric acid).
The optical density (OD) of the test sample was compared to the OD of the phenanthrene standard (0.65 ppm soil equivalents) which was tested simultaneously with the sample. If the sample OD is less than the standard OD, the sample contains more than 1 ppm PAH. […] Other concentration ranges can be assessed by diluting the test samples with suitable diluents, as long as they are non-reactive with the components of the assay.
In addition other potentially cross-reactive compounds were tested.

[1] = Non-EPA PAHs and other compounds

For `Clc1cccc2ccccc12` [1-chloronaphthalene], the “Percent Cross-Reactivity” value [1] was 1.7% and the “Concentration Giving a Positive Result (ppm, soil equivalent)” value [1] was 59 ppm.

In the case of `Cc1cccc2ccccc12` [1-methylnaphthalene], the “Percent Cross-Reactivity” value [1] is reported as 1.8% and the “Concentration Giving a Positive Result (ppm, soil equivalent)” value [1] is reported as 54 ppm.

In the case of `Clc1cc(Cl)c(Cl)cc1Cl` [2,3,5,6-Tetrachlorobenzene], the “Percent Cross-Reactivity” value [1] is reported as < 0.5% and the “Concentration Giving a Positive Result (ppm, soil equivalent)” value [1] is reported as > 200 ppm.

For `Clc1cc(Cl)cc(Cl)c1` [2,4,6-Trichlorobenzene], the “Percent Cross-Reactivity” value [1] was < 0.5% and the “Concentration Giving a Positive Result (ppm, soil equivalent)” value [1] was > 200 ppm.

With `Cc1ccc2ccccc2c1` [2-methylnaphthalene] the “Percent Cross-Reactivity” value [1] was 1.7% and the “Concentration Giving a Positive Result (ppm, soil equivalent)” value [1] was 58 ppm.

For `c1cc2c3c(cccc3c1)CC2` [Acenaphthene], the “Percent Cross-Reactivity” value (Method 8310 EPA PAHs) was 12% and the “Concentration Giving A Positive Result (ppm, soil equivalent)” value (Method 8310 EPA PAHs) was 8.1 ppm.

In the case of `C1=Cc2cccc3cccc1c23` [Acenaphthylene], the “Percent Cross-Reactivity” value (Method 8310 EPA PAHs) is reported as 13% and the “Concentration Giving A Positive Result (ppm, soil equivalent)” value (Method 8310 EPA PAHs) is reported as 7.5 ppm.

For `c1ccc2cc3ccccc3cc2c1` [Anthracene], the “Percent Cross-Reactivity” value (Method 8310 EPA PAHs) was 123% and the “Concentration Giving A Positive Result (ppm, soil equivalent)” value (Method 8310 EPA PAHs) was 0.81 ppm.

In the case of `c1ccccc1` [Benzene], the “Percent Cross-Reactivity” value [1] is reported as < 0.5%, the “Concentration Giving a Positive Result (ppm, soil equivalent)” value [1] is reported as > 200 ppm and the “detection in the immunoassay” value is reported as “not detected”.

For `c1ccc2cc3c(ccc4ccccc43)cc2c1` [Benzo(a)anthracene], the “Percent Cross-Reactivity” value (Method 8310 EPA PAHs) was 64% and the “Concentration Giving A Positive Result (ppm, soil equivalent)” value (Method 8310 EPA PAHs) was 1.6 ppm.

In the case of `c1ccc2c(c1)cc1ccc3cccc4ccc2c1c34` [Benzo(a)pyrene], the “Percent Cross-Reactivity” value (Method 8310 EPA PAHs) is reported as 12%, the “Concentration Giving A Positive Result (ppm, soil equivalent)” value (Method 8310 EPA PAHs) is reported as 8.3 ppm and the “concentration in soil at which the PAH immunoassay will provide a positive result” value (in soils) is reported as ≥ 8.3 ppm.

`c1ccc2c(c1)-c1cccc3c1c-2cc1ccccc13` [Benzo(b)fluoranthene] was tested, and the “Percent Cross-Reactivity” value (Method 8310 EPA PAHs) was 22% and the “Concentration Giving A Positive Result (ppm, soil equivalent)” value (Method 8310 EPA PAHs) was 4.6 ppm.

In the case of `c1cc2ccc3ccc4ccc5cccc6c(c1)c2c3c4c56` [Benzo(ghi)perylene], the “Percent Cross-Reactivity” value (Method 8310 EPA PAHs) is reported as < 0.5% and the “Concentration Giving A Positive Result (ppm, soil equivalent)” value (Method 8310 EPA PAHs) is reported as > 200 ppm.

In the case of `c1ccc2cc3c(cc2c1)-c1cccc2cccc-3c12` [Benzo(k)fluoranthene], the “Percent Cross-Reactivity” value (Method 8310 EPA PAHs) is reported as 11% and the “Concentration Giving A Positive Result (ppm, soil equivalent)” value (Method 8310 EPA PAHs) is reported as 9.4 ppm.

`CCCCC(CC)COC(=O)c1ccccc1C(=O)OCC(CC)CCCC` (centres unmarked) [Bis(2-ethylhexyl) phthalate] was tested, and the “Percent Cross-Reactivity” value [1] was < 0.5% and the “Concentration Giving a Positive Result (ppm, soil equivalent)” value [1] was > 200 ppm.

For `c1ccc2c(c1)ccc1c3ccccc3ccc21` [Chrysene], the “Percent Cross-Reactivity” value (Method 8310 EPA PAHs) was 84% and the “Concentration Giving A Positive Result (ppm, soil equivalent)” value (Method 8310 EPA PAHs) was 1.2 ppm.

For `c1ccc2c(c1)ccc1cc3c(ccc4ccccc43)cc12` [Dibenzo(a,h)anthracene], the “Percent Cross-Reactivity” value (Method 8310 EPA PAHs) was < 0.5% and the “Concentration Giving A Positive Result (ppm, soil equivalent)” value (Method 8310 EPA PAHs) was > 200 ppm.

For `c1ccc2c(c1)oc1ccccc12` [Dibenzofuran], the “Percent Cross-Reactivity” value [1] was 7.2% and the “Concentration Giving a Positive Result (ppm, soil equivalent)” value [1] was 14 ppm.

With `c1ccc2c(c1)-c1cccc3cccc-2c13` [Fluoranthene] the “Percent Cross-Reactivity” value (Method 8310 EPA PAHs) was 73% and the “Concentration Giving A Positive Result (ppm, soil equivalent)” value (Method 8310 EPA PAHs) was 1.4 ppm.

With `c1ccc2c(c1)Cc1ccccc1-2` [Fluorene] the “Percent Cross-Reactivity” value (Method 8310 EPA PAHs) was 67% and the “Concentration Giving A Positive Result (ppm, soil equivalent)” value (Method 8310 EPA PAHs) was 1.5 ppm.

`c1ccc2c(c1)-c1ccc3ccc4cccc5cc-2c1c3c45` [Indeno(1,2,3-cd)pyrene] was tested, and the “Percent Cross-Reactivity” value (Method 8310 EPA PAHs) was 9.4% and the “Concentration Giving A Positive Result (ppm, soil equivalent)” value (Method 8310 EPA PAHs) was 11 ppm.

`c1ccc2ccccc2c1` [Naphthalene] was tested, and the “Percent Cross-Reactivity” value (Method 8310 EPA PAHs) was 0.5% and the “Concentration Giving A Positive Result (ppm, soil equivalent)” value (Method 8310 EPA PAHs) was 200 ppm.

In the case of `Clc1cc(Cl)c(Cl)c(Cl)c1Cl` [Pentachlorobenzene], the “Percent Cross-Reactivity” value [1] is reported as < 0.5% and the “Concentration Giving a Positive Result (ppm, soil equivalent)” value [1] is reported as > 200 ppm.

`Oc1c(Cl)c(Cl)c(Cl)c(Cl)c1Cl` [Pentachlorophenol] was tested, and the “Percent Cross-Reactivity” value [1] was < 0.5% and the “Concentration Giving a Positive Result (ppm, soil equivalent)” value [1] was > 200 ppm.

With `c1ccc2c(c1)ccc1ccccc12` [Phenanthrene, reference compound] the “Percent Cross-Reactivity” value (Method 8310 EPA PAHs) was 100% and the “Concentration Giving A Positive Result (ppm, soil equivalent)” value (Method 8310 EPA PAHs) was 1.0 ppm.

For `Oc1ccccc1` [Phenol], the “Percent Cross-Reactivity” value [1] was < 0.5%, the “Concentration Giving a Positive Result (ppm, soil equivalent)” value [1] was > 200 ppm and the “detection in the immunoassay” value was “not detected”.

`c1cc2ccc3cccc4ccc(c1)c2c34` [Pyrene] was tested, and the “Percent Cross-Reactivity” value (Method 8310 EPA PAHs) was 29% and the “Concentration Giving A Positive Result (ppm, soil equivalent)” value (Method 8310 EPA PAHs) was 3.5 ppm.

`Cc1ccccc1` [Toluene] was tested, and the “Percent Cross-Reactivity” value [1] was < 0.5% and the “Concentration Giving a Positive Result (ppm, soil equivalent)” value [1] was > 200 ppm.

Reference: patent US5618681A, “Polyaromatic hydrocarbon (PAH) immunoassay method, its components and a kit for use in performing the same” (priority 1995, dated 1997)
